Patent US11369618B2, “Compounds, compositions and methods for prevention and/or treatment of cancer” (THE TRUSTEES OF THE UNIVERSITY OF PENNSYLVANIA, priority 2016, dated 2022)
“Also recorded” adds a separate entry of the source.

Tests used:
[1] = tested on: mouse and human melanoma cell lines (B16F10, WM46, WM51, WM3702); assay: proliferation assay of mouse and human melanoma cell lines in vitro; type: cell-based; conditions: estrogen 25 nM E2, G-1 100 nM, vs delivery vehicle
Text: (§1) FIGS. 4A-4F illustrate the finding that GPER signaling slows proliferation and drives differentiation in mouse and human melanoma. FIG. 4A: 5 day proliferation assay of B16F10, WM46 (BRAF^V600E), WM51 (BRAF^V600E), and WM3702 (NRAS^Q61L) cells treated with estrogen (E2), * denotes significance by a two-tailed T-test, n=3 per group. FIG. 4B: 5 day melanin assay of B16F10, WM46 (BRAF^V600E), WM51 (BRAF^V600E), and WM3702 (NRAS^Q61L) cells treated with E2, * denotes significance by a two-tailed T-test, n=3 per group. FIG. 4C: 5 day proliferation assay of B16F10, WM46 (BRAF^V600E), WM51 (BRAF^V600E) and WM3702 (NRAS^Q61L) cells treated with GPER agonist (G-1), * denotes significance by a two-tailed T-test, n=3 per group. FIG. 4D: 5 day melanin assay of B16F10, WM46 (BRAF^V600E), WM51 (BRAF^V600E), and WM3702 (NRAS^Q61L) cells treated with G-1, * denotes significance by a two-tailed T-test, n=3 per group. FIG. 4E: 3 day proliferation assay of B16F10 cells treated with a dose response of G-1, * denotes significance One-way ANOVA with Tukey's multiple comparison test, n=5 per group. FIG. 4F: Western blot of B16F10 cells treated for 16 hours with a saturating dose response of G-1. […]
(§2) Tumor cell proliferation slowed in both mouse and human melanoma cells following treatment with estrogen or G-1, a specific GPER agonist. […] Cell proliferation and differentiation (melanin production) were measured.

PDAC cell lines = assay: proliferation assay of PDAC cell lines treated with G-1; type: cell-based; conditions: 500 nM over 5 days
PDAC tumors = assay: PDAC tumor bearing mice treated with G-1; type: in vivo, mouse; conditions: tumors grown 18 days, dosing on 3 consecutive days, follow-up 4 days; 2 independent PDAC cell lines
[2] = tested on: pCREB and c-Myc in NSCLC line LLC1; assay: Western blot of LLC1 cells treated with G-1; type: cell-based; conditions: LLC1, 500 nM
Description: (§3) FIGS. 18A-18G illustrate the finding that GPER signaling reduces NSCLC cell proliferation in vitro and in vivo and has combinatorial effects with αPD-1 immunotherapy. FIG. 18A: Western blot for pCREB of LLC1 cells treated with 500 nM G-1 for 30 minutes. FIG. 18B: Proliferation assay of LLC1 treated with 500 nM G-1 for 6 days. FIG. 18C: Western blot for c-Myc of LLC1 cells treated with 500 nM G-1 for 6 days. FIG. 18D: Western blot for c-Myc of LLC1 cells treated with 500 nM G-1 over a time-course. […] FIG. 18F: Tumor volumes over time of LLC1 tumor bearing mice treated with vehicle or G-1, as well as αPD-1 antibody or isotype antibody control (2A3). FIG. 18G: Survival curve of mice treated with vehicle or G-1, as well as αPD-1 antibody or isotype antibody control (2A3).
Reproductive history influences lung cancer as well. Women have a decreasing risk of lung cancer correlated with the number children they have had.

[3] = tested on: mouse and human melanoma cell lines (B16F10, WM46, WM51, WM3702); assay: melanin assay (differentiation) of mouse and human melanoma cell lines in vitro; type: cell-based; conditions: estrogen 25 nM E2, G-1 100 nM, vs delivery vehicle
Text: as §1, §2

[4] = tested on: murine B16F10 melanoma cells; assay: G-1-pretreated B16F10 cells injected into syngeneic C57BL/6 mice, then αPD-1 antibody or isotype control; type: in vivo, mouse; conditions: B16F10 cells pretreated in vitro
Description: FIG. 13D: Experimental timeline of vehicle or G-1 pre-treatment of B16F10 cells followed by treatment with either αPD-1 antibody or isotype antibody control (2A3), n=5 per group. FIG. 13E: Tumor volumes of treatment groups at Day 14, * denotes significance One-way ANOVA with Tukey's multiple comparison test. FIG. 13F: Survival curve of mice with tumors pre-treated with vehicle or G-1, followed by isotype antibody control (2A3) or αPD-1 antibody.
To determine whether tumor cell intrinsic GPER signaling influences melanoma vulnerability to immune checkpoint therapy, studies were performed, based on the observation that GPER-driven differentiation is long lasting. G-1 was used to activate GPER and drive differentiation in murine B16F10 melanoma cells in vitro (FIG. 13D). Then, equal numbers of vehicle or G-1-treated tumor cells were injected into syngeneic C57BL/6 mice and the animals were treated with either αPD-1 antibody or isotype antibody control.

NSCLC line LLC1 = assay: proliferation assay of LLC1 treated with G-1; type: cell-based; conditions: LLC1, 500 nM, 6 days
Description: as §3

[5] = tested on: tumor infiltrating immune cells; assay: immune profiling of tumors in YUMM 1.7 melanoma bearing mice; type: in vivo, mouse
Text: FIGS. 15A-15C illustrate the finding that G-1 treatment in vivo alters tumor infiltrating immune cells. […] FIG. 15B: Heatmap summarizing immune profiling across biological replicates, n=5 per group, * denotes significance by two-way ANOVA assuming each immune population is an independent measurement of immune activation. FIG. 15C: Quantification of individual immune populations from FIG. 15B, n=5 per group.

[6] = tested on: Mouse (B16) and human (WM46) melanoma cell lines; assay: tumor formation in mice from melanoma cells pretreated in vitro; type: in vivo; conditions: melanoma cells pretreated in vitro, equal numbers injected into mice
Description: FIG. 11A: Long-term melanin assay in which normal human melanocytes were transiently treated with progesterone (P4), or estrogen (E2). Subsets of these groups (Red) were treated with an additional transient pulse of P4 at Day 27. Error bars equal the standard deviation of the samples. FIG. 11B: Western blot of melanocyte differentiation markers after a transient, 4-day treatment with either vehicle or estrogen, followed by an 8 day withdraw period. FIG. 11C: Experimental timeline of estrogen or GPER agonist (G-1) pre-treatment of mouse and human melanoma cells, n=5 per group. FIG. 11D: Relative tumor weights of mouse and human melanomas pre-treated with estrogen, * denotes significance by the Mann-Whitney test. FIG. 11E: Relative tumor weights of mouse and human melanomas pre-treated with G-1, * denotes significance by the Mann-Whitney test.
Mouse (B16) and human (WM46) cell lines were pretreated with estrogen, G-1, or vehicle in vitro for one week then injected in equal numbers in to the left (vehicle-treated) or right (E2-treated) flank of mice, inducing tumor formation (N=5 mice per group) (FIG. 5). 14-16 days later, mice were imaged and tumors were harvested and weighed.
To test whether transient GPER signaling induces a persistent differentiation state in melanoma cells that affects subsequent tumor growth in vivo, melanoma cells were treated with estrogen, G-1, or vehicle in vitro, and subsequently injected equal numbers of treated cells into host mice (FIG. 11C).

[7] = tested on: mouse melanoma cell line B16F10; assay: in vivo treatment with G-1 of B16F10 melanoma (FIG. 6); conditions: B16F10, FIG. 6

## CC(=O)c1ccc2c(c1)[C@@H]1C=CC[C@@H]1[C@H](c1cc3c(cc1Br)OCO3)N2 (relative stereo) [Compound G-1, rel-1-[4-(6-bromo-1,3-benzodioxol-5-yl)-3aR,4S,5,9bS-tetrahydro-3H-cyclopenta[c]quinolin-8-yl]-ethanone]
[1]
  melanoma cell proliferation: slowed melanoma cell proliferation
PDAC cell lines
  proliferation rates: inhibited
PDAC tumors
  tumor size (tumor weights): significantly smaller
[2]; 30 minutes
  pCREB levels: elevated pCREB levels
[2]; long-term treatment (6 days)
  c-Myc protein: reduction of c-Myc protein
[3]
  differentiation (melanin production): drove differentiation
[4]
  subsequent tumor growth: inhibited subsequent tumor growth
  survival: extended survival compared to controls
NSCLC line LLC1
  proliferation: decreased proliferation
[5]
  tumor infiltrating immune cell subsets: increased several immune cell subsets, including T cells and NK cells
[6]
  tumor growth / tumor size from pretreated cells: formed significantly smaller tumors; also recorded: markedly reduced subsequent tumor size
[7]
  tumor growth in vivo: inhibited tumor growth in vivo; also recorded: inhibits mouse melanoma cell line B16F10 growth in vivo
